# Test results from US20010041708A1, “Compositions for preventing cellulite in mammalian skin” (Zen-Bio, Inc., priority 2000, published 2001).
# “And” between values parts separate entries of the source, which are not always exact repeats. Equal values may be shown once.
# Key:
# [1] = system: stromal vascular (SV) cells from human adipose tissue; assay: Percentage of cells differentiated into adipocytes (Oil Red O staining); type: cell-based; details: Exp. 1, seeding density 4×10^4
# Procedure: (§1) Experiment 1 was designed to determine optimal culturing conditions during differentiation of primary cultures of SV cells isolated from human adipose tissue. Specifically, the experiment was designed to determine how seeding density and thiazolidinedione (TZD; PPARγ-agonist BRL 49653) concentration influenced TG content (ug/10^6cells). SV cells were seeded at increasing densities (2-, 3-, or 4×10^4/cm^2) in differentiation media containing 0, 1, or 10 uM TZD (BRL 49653) in this 3×3 factorial design. All cultures received the same adipocyte media after 3 d of differentiation. The cultures were harvested on day 11-12 of differentiation and TG content and cell number were measured. Another set of cultures was stained with Oil Red O and counterstained with Mayer's hematoxylin to assess cellular differentiation potential (n=3 per treatment combination).
# The presence of intracellular lipid was visualized by staining cultures with Oil Red O as previously described for human SV cultures (McIntosh et al. (1999) Int. J. Obesity 23:595-602). […] Counterstaining allows for quantifying the percentage of cells that have undergone differentiation (e.g., […]). […]
# [2] = system: stromal vascular (SV) cells from human adipose tissue; assay: Triglyceride (TG) content of differentiating primary cultures of SV cells; type: cell-based; details: for TG content, dose response: Exp. 3, 1, 3, 10, 30 uM; for More TG content than cultures treated with 10 uM trans-10, cis-12 CLA alone: Exp. 4
# Procedure: Abdominal adipose tissue (Exp. 1-5) and thigh adipose tissue (Exp. 5b) were obtained from middle-aged females with body mass indexes <30.0 during liposuction or elective surgery. Subsequently, tissue was minced and enzymatically digested for 45 min in a Krebs-Ringer buffer containing 1 mg/mL collagenase (CLS-1, Worthington Biochemical Corp, Lakewood, N.J.), 15 mg/mL bovine serum albumin (BSA), 5 mM glucose and 100 mM HEPES (pH 7.4). Digestion was carried out at a 5 mL/1 g ratio (digestion solution: tissue mass). The digesta was then filtered through 200- and 60-micron mesh and pelleted at 600×g for 5 min. The SV cells were resuspended in a RBC lysis buffer for 10 min and then filtered and recentrifuged to remove contaminating […]. Cultures of SV cells were grown in proliferation medium containing 90% DME/Ham's F-10 (1:1, v/v), 10% (v/v) fetal bovine serum (FBS), 15 mM HEPES (pH 7.4), 60 U/mL penicillin, 60 U/mL streptomycin, and 25 ug/mL fungizone. Cultures were incubated at 37° C. in a humidified […]:CO2 (90:10%) atmosphere. SV cells were grown to 80% confluency and then cryopreserved in liquid nitrogen in aliquots (2×10^6 cells/mL).
# Cryopreserved aliquots were subsequently thawed, seeded in T-150 flasks (e.g., 1 vial per 2 T-150 flasks), and grown in proliferation media until 80% confluent. At this time the cells were removed via trypsinization, seeded (3×10^4/cm^2, except for Exp. 1) in 24-well or 96-well (Exp. 5b) Falcon dishes, and allowed to attach for 24 h in proliferation medium. Following attachment, cultures were grown in differentiation medium for the next 3 d which contained DME/Ham's F-10 (1:1,v/v), 15 mM HEPES (pH 7.4), 33 uM biotin, 17 uM pantothenate, 100 nM human insulin, 1 uM dexamethasone (DEX), 60 U/mL penicillin, 60 U/mL streptomycin, 25 ug/mL fungizone, 0.25 mM isobutylmethylxanthine (IBMX), and TZD (Exp. 1 & 2=BRL 49653; Exp. 3-5=Zen Bio's proprietary reagent). Thereafter, cultures were exposed to adipocyte medium consisting of 90% DME/Ham's F-10 (1:1,v/v), 15 mM HEPES (pH 7.4), 3% FBS (v/v), 33 uM biotin, 17 uM pantothenate, 100 nM human insulin, 1 uM DEX, 60 U/mL penicillin, 60 U/mL streptomycin, and 25 ug/mL fungizone. Adipocyte media was replaced every 3 d. […] After 18 day in culture, the majority of the cells contained visual lipid droplets.
# as §1
# In Experiment 2 the impact of linoleic acid and the trans-10, cis-12 isomer of CLA on TG accumulation in these cells was examined. SV cells were seeded at a density of 3×10^4/cm^2 and continuously treated with either 10 uM linoleic acid, 100 uM linoleic acid, 10 uM trans-10, cis-12 CLA, or 100 uM trans-10, cis-12 CLA, and grown under our normal differentiation protocol. One set of control cultures contained only vehicle (BSA) and another contained vehicle plus TZD (BRL 49653). TG content and cell number were measured on day 11 of differentiation.
# The objective of Experiment 3 was to evaluate the dose response of trans-10, cis-12 CLA, cis-9, trans-11 CLA, and linoleic acid on TG content of the cultures. […]
# [3] = system: differentiated human adipocytes; assay: Lipolysis measurement (glycerol release) in day 21 differentiated human adipocytes; details: 3 hrs
# [4] = system: cultures of thigh adipocytes; assay: Lipolysis assay (glycerol release), thigh adipocytes; type: cell-based, human; details: Exp. 5b; 1 uM, 5 h, day 18, thigh
# Procedure: (§2) Subsequently, tissue was minced and enzymatically digested for 45 min in a Krebs-Ringer buffer containing 1 mg/mL collagenase (CLS-1, Worthington Biochemical Corp, Lakewood, N.J.), 15 mg/mL bovine serum albumin (BSA), 5 mM glucose and 100 mM HEPES (pH 7.4). Digestion was carried out at a 5 mL/1 g ratio (digestion solution: tissue mass). The digesta was then filtered through 200- and 60-micron mesh and pelleted at 600×g for 5 min. The SV cells were resuspended in a RBC lysis buffer for 10 min and then filtered and recentrifuged to remove contaminating […]. […] SV cells were grown to 80% confluency and then cryopreserved in liquid nitrogen in aliquots (2×10^6 cells/mL). In Experiment 5b, basal lipolysis was measured on day 18 of differentiation after the cultures had been treated with fatty acids for 5 h. […] Lipolysis was determined by measuring free and esterified glycerol release into the media following acute (5 h) treatment. […] On day 17 of differentiation, cultures were grown in basal adipocyte media (adipocyte media minus insulin and DEX). […] A set of vehicle controls contained 0.1% DMSO. One hundred microliters of conditioned media was removed from each well, and lipolytic rate determined by quantifying the amount of free glycerol and esterified glycerol in each sample using Sigma's triglyceride kit (GPO-Trinder, Sigma Chemical Co.).
# [5] = system: cultures of abdominal adipocytes; assay: Lipolysis assay (glycerol release), abdominal adipocytes; type: cell-based, human; details: Exp. 5b; 1 uM, 5 h, day 18, abdominal
# Procedure: as §2
# 3T3-L1 preadipocytes [6] = assay: Fatty acid composition of neutral and phospholipid fractions of treated cultures; type: cell-based, murine
# [7] = system: stromal vascular (SV) cells from human adipose tissue; assay: De novo lipogenesis (14C-glucose incorporation into cellular lipid); type: cell-based; details: Exp. 5a; 3, 10, 30 uM, day 12
# Procedure: Experiments 5a and 5b were designed to determine if the trans-10, cis-12 CLA-mediated reduction in TG content was due to decreased lipogenesis and/or increased lipolysis. In Experiment 5a (lipogenesis), SV cells were seeded at a density of 3×10^4/cm^2 and continuously treated with increasing concentrations (3, 10, or 30 uM) of either linoleic acid, cis-9, tran-11 CLA, or trans-10, cis-12 CLA. A set of control cultures received vehicle (BSA) plus TZD. All cultures received differentiation media (days 1-3), adipocyte media (days 4-9), and low-glucose (˜5 mM) adipocyte media (days 10-12) prior to measuring de novo lipogenesis. On day 12, ^14C-labeled glucose incorporation into the lipid fraction of the cultures was measured for 2 h and, following lipid extraction, the radioactivity in the lipid fraction was determined by scintillation counting. Time course data (not shown) indicated a linear increase in radiolabeled glucose incorporation into lipid over 2 h.
# Incorporation of ^14C-glucose into cellular lipid was determined on day 12 of differentiation in cultures chronically treated with fatty acids or vehicle. Following the addition of fatty acids and low glucose (˜5 mM) medium to the cultures on day 12, 1.0 μCi [U-^14C]-glucose ([U-^14C]-D-glucose; SA ˜250 mCi/mmol, ICN, Costa Mesa, Calif.)/mL medium was added to the cultures for 2 h. Our time course study (data not shown) indicated a linear increase in radiolabeled glucose incorporation into lipid over a 2 h period. After 2 h, media containing unincorporated ^14C-glucose was immediately removed and the cultures were washed with 1 mL HBSS to remove unincorporated ^14C-glucose. An additional 1 mL of HBSS was added and, after vigorous tritaration, cells were transferred to glass vials. Five milliliters of a chloroform:methanol (2:1) solution was added to each vial and they were vortexed for 1 min. All samples were then centrifuged for 5 min at 1000×g to further separate the hydrophobic and hydrophilic phases. The lower hydrophobic phase was removed from the tubes and dried under nitrogen at 40° C. Five milliliters of scintillation cocktail (Scinti Verse, Fisher Scientific, Norcross, Ga.) was added to each sample, and the ^14C content was determined by liquid scintillation counting on a Beckman LS 6000 Scintillation Counter (Beckman Instruments, Palo Atlo, Calif.). […] The radioactivity in the lipid fraction from these cultures was subtracted from the total counts. Cell numbers were determined from parallel treatment groups in separate culture dishes at the time of radioisotope addition to the medium. Therefore, mean ^14C-glucose incorporation is expressed as cpm/10^6 cells.
# 3T3-L1 preadipocytes [8] = assay: Morphological changes (apoptosis-like) in CLA-treated cultures; type: cell-based, murine; details: LA supplementation of trans-10, cis-12 CLA-treated cultures
# PPARγ2 = PPARγ2 protein expression in 3T3-L1 preadipocytes; type: cell-based, murine
# 3T3-L1 preadipocytes [9] = assay: Cell number of treated 3T3-L1 cultures; type: cell-based, murine; details: data not shown
# 3T3-L1 preadipocytes [10] = assay: TG content of 3T3-L1 preadipocytes; type: cell-based, murine; details: LA supplementation of CLA-treated cultures
# aP2 = aP2 protein expression in 3T3-L1 preadipocytes; type: cell-based, murine; details: after 6 d of treatment
structure (smiles),measurement,setting,value
CN(CCOc1ccc(CC2SC(=O)NC2=O)cc1)c1ccccn1 (stereo not drawn) [BRL 49653],Percentage of cells that differentiated,[1]; 1 uM TZD,50%
same,Percentage of cells that differentiated,[1]; 10 uM TZD,47%
same,"TG content, fold greater than similarly seeded cultures without BRL 49653","[2]; Exp. 1, 10 uM, seeded at 4×10^4 cells/cm^2",10 fold
Cn1c(=O)c2c(ncn2C)n(C)c1=O [Caffeine],"Lipolysis, fold increase over control",[3]; 0.1 % (wt./volume),2.4 fold and 4.2 fold
CC(C)NCC(O)c1ccc(O)c(O)c1 (stereo not drawn) [Isoproterenal],"Lipolysis, fold increase over control",[3]; 0.00002 % (wt./volume),3.4 fold
same,Stimulation of lipolysis,[4],~1.5 fold
same,Stimulation of lipolysis,[5],approximately 2.5 fold
Cn1c(=O)c2[nH]cnc2n(C)c1=O [Theophylline],"Lipolysis, fold increase over control",[3]; 0.01 % (wt./volume),0.8 fold
same,"Lipolysis, fold increase over control",[3]; 0.05 % (wt./volume),1.9 fold
same,"Lipolysis, fold increase over control",[3]; 0.1 % (wt./volume),3.1 fold
"CCCCCC/C=C/C=C\CCCCCCCC(=O)O [cis-9, trans-11 CLA]","TG content, dose response",[2]; day 11,increased in a dose dependent fashion
same,"Abundance in lipid fractions relative to trans-10, cis-12 isomer",3T3-L1 preadipocytes [6],1-2 fold
same,Incorporation into cellular lipid fractions,3T3-L1 preadipocytes [6]; neutral and phospholipid fractions,incorporated into the neutral and phospholipid fractions
same,"Incorporation of 14C-glucose into cellular lipid per 10^6 cells, dose response",[7],"neither linoleic acid nor trans-9, cis-11 CLA influenced de novo lipogenesis"
"CCCCC/C=C\C/C=C\CCCCCCCC(=O)O [linoleic acid, 9 cis, 12 cis-octadecadienoic acid]",CLA-induced morphological changes,3T3-L1 preadipocytes [8],inhibited the CLA-induced morphological changes in a dose-dependent manner
same,TG content vs other treatments / TZD treated vehicle controls,"[2]; Exp. 2, 100 uM, continuous treatment, day 11",highest TG content
same,"TG content, dose response",[2]; day 11,increased in a dose dependent fashion
same,"More TG content than cultures treated with 10 uM trans-10, cis-12 CLA alone","[2]; 10 uM linoleic acid added to 10 uM trans-10, cis-12 CLA",26%
same,"More TG content than cultures treated with 10 uM trans-10, cis-12 CLA alone","[2]; 30 uM linoleic acid added to 10 uM trans-10, cis-12 CLA",55%
same,"More TG content than cultures treated with 10 uM trans-10, cis-12 CLA alone","[2]; 100 uM linoleic acid added to 10 uM trans-10, cis-12 CLA",64%
same,"PPARγ2 protein levels, concurrent LA and trans-10, cis-12 CLA vs CLA alone",PPARγ2; 6 d,increased PPARγ2 protein levels
same,PPARγ2 protein expression,PPARγ2; after 6 d of treatment,decreased
same,PPARγ2 protein expression compared to BSA controls,PPARγ2; day 2 of differentiation,reduced PPARγ2 protein expression
same,Cell number,3T3-L1 preadipocytes [9],increased cell number
same,"Incorporation of 14C-glucose into cellular lipid per 10^6 cells, dose response",[7],"neither linoleic acid nor trans-9, cis-11 CLA influenced de novo lipogenesis"
same,"TG content, concurrent linoleic acid with trans-10, cis-12 CLA",3T3-L1 preadipocytes [10],"able to prevent the TG-lowering effects of trans-10, cis-12 CLA"
same,aP2 protein expression,aP2,decreased
